13 compounds from ChEMBL document CHEMBL1201862, “PubChem BioAssay data set” (2004) can be followed below.

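Where inhibition never reached the appropriate level, the endpoint shown equals the highest concentration tested. Otherwise, values were interpolated linearly from a five-concentration, 48-hour dose response in 96-well plates. GI50: concentration for 50% inhibition of growth.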 Active and inactive are the calls of the source. Cut-off read from the data, not from the text of the source: active = GI50 up to about 1.1 µM and inactive = higher.

Test systems include A498; CAKI-1; DU-145; HCC 2998; M14; MCF7; NCI-H226; SNB-19; SR; TK-10; ACHN; DLD-1; DMS-114; DMS-273; LXFL 529; M19-MEL; NCI-H522; RPMI-8226; SNB-78; HOP-18.
Common to all, as to test: NCI anticancer screen, dose series, 48 h

Turning to `COC(Cc1cc(C(O)(c2ccc(C(C)(C)C)cc2)c2cc(CC(OC)(c3cc(C(OC)(c4ccc(C(C)(C)C)cc4)c4ccc(C(C)(C)C)cc4)c(C)cc3C)c3cc(C(OC)(c4ccc(C(C)(C)C)cc4)c4ccc(C(C)(C)C)cc4)c(C)cc3C)c(C)cc2C)c(C)cc1C)(c1cc(C(OC)(c2ccc(C(C)(C)C)cc2)c2ccc(C(C)(C)C)cc2)c(C)cc1C)c1cc(C(OC)(c2ccc(C(C)(C)C)cc2)c2ccc(C(C)(C)C)cc2)c(C)cc1C`, the GI50 in the assay with A498, with CAKI-1, with DU-145, in the assay with HCC 2998, in the assay on M14 and with MCF7 was > 75 µM (inactive) throughout. Besides, the GI50 in the assay with NCI-H226, in the assay on SNB-19, with SR and in the assay with TK-10 was > 75 µM (inactive) throughout.
`Cc1nc2c(c(=O)[nH]1)S/C(=C(/C#N)c1nc3ccccc3[nH]1)N2c1ccccc1`: the GI50 with A498, with ACHN, with CAKI-1, in the assay on DLD-1, in the assay with DMS-114 and with DMS-273 was > 100 µM (inactive) throughout. For the same compound, the GI50 in the assay on HCC 2998, with LXFL 529, with M14, in the assay on M19-MEL, in the assay on NCI-H522 and in the assay on RPMI-8226 was > 100 µM (inactive) in each case. The GI50 in the assay with SNB-19 is > 100 µM (inactive); in the assay with SNB-78 it was 0.607 µM (active); with SR, > 100 µM (inactive); in the assay with TK-10, > 100 µM (inactive).
`CC(=O)c1c(-c2ccco2)c(C#N)c(=S)n(C2OC(CO)C(O)C(O)C2O)c1C` (stereo unspecified): the GI50 with ACHN is > 100 µM (inactive); in the assay with CAKI-1 it was > 100 µM (inactive); in the assay on DU-145, > 100 µM (inactive); with M14, 72.9 µM (inactive); in the assay on MCF7, 88.5 µM (inactive); in the assay on RPMI-8226 it was > 100 µM (inactive). Besides, the GI50 in the assay on SNB-19 was 83.6 µM (inactive); in the assay with SR, 97.5 µM (inactive); with TK-10, > 100 µM (inactive).
`O=C(CCl)NNC1=Nc2ccc(Cl)cc2SC1`: the GI50 in the assay on A498 is 20.6 µM (inactive); in the assay on DLD-1, 1.85 µM (inactive); in the assay with DMS-114, 1.98 µM (inactive); with DMS-273 it was 2.88 µM (inactive); in the assay with HCC 2998, 5.4 µM (inactive); in the assay with HOP-18, 1.88 µM (inactive). In addition, the GI50 in the assay with M19-MEL is 2.18 µM (inactive); in the assay on MCF7 it was 3.01 µM (inactive); with NCI-H226, 2.61 µM (inactive); with NCI-H522 it was 0.553 µM (active); in the assay on RPMI-8226, 1.86 µM (inactive); in the assay with SNB-19, 13.5 µM (inactive). In addition, the GI50 in the assay with SNB-78 is 2.03 µM (inactive).
`CN(C(=O)c1ccccc1)c1ccc2c(c1)C(=O)c1ccccc1C2=O`: the GI50 in the assay with ACHN, in the assay with CAKI-1, in the assay with DMS-114, with DMS-273, in the assay with HCC 2998 and in the assay with LXFL 529 was > 100 µM (inactive) each time. For the same compound, the GI50 in the assay on M14, with M19-MEL, in the assay with NCI-H226, with NCI-H522, in the assay with RPMI-8226 and with SR was > 100 µM (inactive) throughout. For the same compound, in the assay on TK-10, the GI50 is > 100 µM (inactive).
For the compound `CSc1nc2c(ncn2C2OCC(O)C(O)C2O)c(=O)[nH]1` (stereo unspecified), the GI50 with A498, in the assay with DLD-1, in the assay with DMS-114, in the assay on DMS-273, with HCC 2998 and in the assay with HOP-18 was > 100 µM (inactive) throughout. The GI50 with M19-MEL, in the assay on MCF7, in the assay with NCI-H226, in the assay on NCI-H522, in the assay on RPMI-8226 and with SNB-19 was > 100 µM (inactive) in each case. Moreover, the GI50 in the assay with SNB-78 is > 100 µM (inactive).
As to `Cc1ccc([N+](=O)[O-])cc1S(=O)(=O)Nc1ccc(C2=NNC(c3ccccc3O)C2)cc1` (stereo unspecified), the GI50 with A498 is 19.9 µM (inactive); with ACHN, 23.6 µM (inactive); with CAKI-1 it was 25.1 µM (inactive); with DU-145 it was 38.7 µM (inactive); in the assay with HCC 2998, 34.7 µM (inactive); in the assay on M14, 20.7 µM (inactive). The GI50 in the assay with MCF7 was 23.1 µM (inactive); in the assay with NCI-H226 it was 48.3 µM (inactive); with NCI-H522 it was 23.3 µM (inactive); with RPMI-8226, 26.2 µM (inactive); in the assay on SNB-19, 33.8 µM (inactive); with SR, 23.9 µM (inactive). Moreover, the GI50 in the assay with TK-10 was 0.416 µM (active).
In the case of `CN/N=C(\C(=O)Nc1ccc(C)c(C)c1)C(C(=O)OC)c1nc2ccc([N+](=O)[O-])cc2nc1O` (stereo unspecified), the GI50 with A498 was > 100 µM (inactive); in the assay on ACHN, > 100 µM (inactive); in the assay on CAKI-1, > 100 µM (inactive); with DLD-1, > 100 µM (inactive); with DMS-114, 42.2 µM (inactive); in the assay with DMS-273, > 100 µM (inactive). Besides, the GI50 with HCC 2998 was > 100 µM (inactive); with LXFL 529, > 100 µM (inactive); with M14, > 100 µM (inactive); in the assay on M19-MEL, > 100 µM (inactive); with NCI-H226, > 100 µM (inactive); in the assay on NCI-H522, 12.6 µM (inactive). The GI50 in the assay with RPMI-8226 was 52.7 µM (inactive); with SNB-19, > 100 µM (inactive); in the assay with SNB-78, > 100 µM (inactive); with SR it was > 100 µM (inactive); in the assay with TK-10, > 100 µM (inactive).
As to `CCCCCn1cc2c3c(cccc31)C1C=C(C)CN(C)[C@@H]1C2.Cc1ccc(C(=O)OC(C(=O)O)C(OC(=O)c2ccc(C)cc2)C(=O)O)cc1` (stereo unspecified), the GI50 in the assay on A498 was 8.83 µM (inactive); in the assay on CAKI-1 it was 5.69 µM (inactive); in the assay with DLD-1 it was 6.12 µM (inactive); in the assay on DMS-114, 3.47 µM (inactive); with DMS-273 it was 3.92 µM (inactive); in the assay on HCC 2998, 2.6 µM (inactive). The GI50 was 2.33 µM (inactive) in the assay with HOP-18; 4.48 µM (inactive) in the assay with M19-MEL; 4.03 µM (inactive) with MCF7; 9.79 µM (inactive) in the assay with NCI-H226; 3.44 µM (inactive) in the assay with NCI-H522; 2.64 µM (inactive) in the assay with RPMI-8226. Moreover, the values for the GI50 with SNB-19 and in the assay on SNB-78 were 10.4 µM (inactive) and 13.7 µM (inactive), respectively.
On to `O=C1OC2(CC1C1(O)C3CC4CC(C3)CC1C4)C1CC3CC(C1)CC2C3` (stereo unspecified), for which the GI50 is 28.1 µM (inactive) with A498; > 100 µM (inactive) in the assay with ACHN; > 100 µM (inactive) in the assay with DLD-1; 82 µM (inactive) with DMS-114; > 100 µM (inactive) with DMS-273; 6.61 µM (inactive) with HOP-18. Besides, the GI50 with LXFL 529, in the assay with M14, in the assay with M19-MEL, with NCI-H226, with SNB-78 and with TK-10 was > 100 µM (inactive) each time.
As for `N#C/C(=C\c1ccncc1)c1csc2ccccc12`, the GI50 was 21.3 µM (inactive) in the assay on A498; 27.4 µM (inactive) with CAKI-1; 28.3 µM (inactive) in the assay on DLD-1; 26.3 µM (inactive) in the assay with DMS-273; 17.4 µM (inactive) in the assay with HCC 2998; 31.1 µM (inactive) in the assay on HOP-18. For the same compound, the GI50 is 31.8 µM (inactive) in the assay with M19-MEL; 25 µM (inactive) in the assay on MCF7; 26.4 µM (inactive) with NCI-H226; 17.5 µM (inactive) in the assay on NCI-H522; 18.6 µM (inactive) in the assay on RPMI-8226; 26 µM (inactive) in the assay with SNB-19. Besides, the GI50 in the assay on SNB-78 is 23.8 µM (inactive).
Regarding `O=c1c(C(c2ccccc2)c2c(O)oc3cc(O)ccc3c2=O)c(O)oc2cc(O)ccc12`, the GI50 in the assay with A498, in the assay on CAKI-1, in the assay with DU-145, in the assay with HCC 2998, in the assay with M14 and with MCF7 was > 100 µM (inactive) in each case. Also, the GI50 with NCI-H226, in the assay on SR and in the assay on TK-10 was > 100 µM (inactive) each time.
Consider `C/C=C1/C(=O)O[C@]23C=C[C@@H]4C(C(=O)OC)=CO[C@H](O[C@@H]12)[C@@H]43` [PLUMERICIN], for which the GI50 was 0.838 µM (active) in the assay on A498; 1.14 µM (inactive) in the assay with CAKI-1; 0.432 µM (active) in the assay on DLD-1; 1.12 µM (inactive) in the assay with DMS-114; 2.32 µM (inactive) in the assay with DMS-273; 2.68 µM (inactive) in the assay with HCC 2998. Also, the GI50 is 4.67 µM (inactive) with HOP-18; 0.726 µM (active) with M19-MEL; 0.832 µM (active) in the assay with MCF7; 2.44 µM (inactive) with NCI-H226; 0.353 µM (active) in the assay on NCI-H522; 0.423 µM (active) with RPMI-8226. For the same compound, the results for the GI50 in the assay with SNB-19 and in the assay with SNB-78 were 3.56 µM (inactive) and 1.94 µM (inactive), respectively.
